Reference: US5852007A, “Cysteine and serine protease inhibitors containing D-amino acid at the P2 position, methods of making same, and methods of using same” (priority 1997, dated 1998)
pIC50: −log10 of the molar value. Square brackets hold non-standard residues; d marks the D form. Peptide text beside a SMILES is read from it. * marks the point of attachment. ξ: configuration not given here. ξF = NC(Cc1ccccc1)C(=O)O; Bn = c1ccc(C*)cc1; Ms = CS(=O)(=O)*; CH2F = FC*

What was measured:
[1] = target: T1, Recombinant human calpain I (Homo sapiens, UniProt P07384); test: Rate of inactivation of calpain I (second order rate constant); assay type: biochemical; conditions: Table II, read-out: Calpain Inactivation Rates
T1 construct: made in house
T1 sequence (P07384 1-714): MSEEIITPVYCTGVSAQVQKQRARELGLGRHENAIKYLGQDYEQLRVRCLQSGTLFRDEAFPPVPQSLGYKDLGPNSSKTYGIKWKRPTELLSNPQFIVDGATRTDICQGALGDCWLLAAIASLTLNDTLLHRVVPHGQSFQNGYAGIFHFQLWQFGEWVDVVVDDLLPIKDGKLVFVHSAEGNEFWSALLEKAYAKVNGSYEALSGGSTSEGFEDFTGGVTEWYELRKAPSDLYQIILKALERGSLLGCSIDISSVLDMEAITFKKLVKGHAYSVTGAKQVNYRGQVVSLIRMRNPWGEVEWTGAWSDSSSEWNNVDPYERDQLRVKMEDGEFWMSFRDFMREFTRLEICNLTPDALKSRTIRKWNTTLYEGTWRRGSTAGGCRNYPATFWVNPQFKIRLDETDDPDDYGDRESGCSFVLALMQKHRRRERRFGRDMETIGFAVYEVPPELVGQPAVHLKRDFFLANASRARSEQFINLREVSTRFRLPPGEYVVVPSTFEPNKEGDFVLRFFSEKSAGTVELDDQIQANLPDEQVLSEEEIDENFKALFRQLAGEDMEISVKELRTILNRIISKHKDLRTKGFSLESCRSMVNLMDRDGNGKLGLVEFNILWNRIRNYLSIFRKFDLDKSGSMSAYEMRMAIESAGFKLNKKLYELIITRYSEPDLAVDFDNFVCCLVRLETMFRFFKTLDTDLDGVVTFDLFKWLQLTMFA
Procedure: To evaluate inhibitory activity, stock solutions (40 times concentrated) of exemplary compounds of the invention were prepared in 100% anhydrous DMSO and 5 μL of each inhibitor preparation were aliquoted into each of three wells of a 96-well plate. Recombinant human calpain I, prepared by the method of Meyer et al. (Biochem. J. 314: 511-519 (1996)), was diluted into assay buffer (i.e., 50 mM Tris, 50 mM NaCl, 1 mM EDTA, 1 mM EGTA, and 5 mM-mercaptoethanol, pH 7.5 including 0.2 mM Succ-Leu-TyrMNA) and 175 μL aliquoted into the same wells containing the independent inhibitor stocks as well as to positive control wells containing 5 μL DMSO, but no compound. To start the reaction, 20 μL of 50 mM CaCl2 in assay buffer was added to all wells of the plate, excepting three, which were used as background signal baseline controls. Substrate hydrolysis was monitored every 5 minutes for a total of 30 minutes. Substrate hydrolysis in the absence of inhibitor was linear for up to 15 minutes.
Inhibition of calpain I activity was calculated as the percent decrease in the rate of substrate hydrolysis in the presence of inhibitor (VI) relative to the rate in its absence (VO). Comparison between VO and VI was made within the linear range for substrate hydrolysis. For screening, compounds were tested at 10, 1.0, and 0.1 μM. Compounds having 50% inhibition at 10 μM were considered active. […] The results were plotted as % inhibition versus log inhibitor concentration and the IC50 was calculated from linear regression of the data. Apparent second order rate constants were determined from analysis of reaction progress curves under pseudo-first order conditions. Each determination represents the means of three or more independent single cuvette analyses continually monitored via a Perkin-Elmer LS50B spectrofluorimeter. […]
where y is the product formed at time t. […] The apparent second order rate constant kapp was determined as Kobs /[I]. […]

cathepsin L = target: T2, cathepsin L (Homo sapiens, UniProt P07711); test: Inhibition of cathepsin L; assay type: biochemical; conditions: Table II; read-out: Cat L IC50
T2 construct: purchased Calbiochem 219402
Procedure: (§1) Additionally,the order of reagents added to the plate was altered because both enzymes are constitutively active. Following inhibitor addition to the plates, appropriate 2× concentrated stock dilutions of the enzyme preparations were made in assay buffer and 100 μl added to each well. The assay was initiated by addition of 100 μl of 2× concentrated stock dilution of substrate in assay buffer.

thrombin = target: T3, thrombin (Homo sapiens, UniProt P00734); test: Inhibition of thrombin; assay type: biochemical; conditions: Table II; 10 uM; read-out: Thrombin % I @ 10 uM
T3 construct: purchased Sigma Chem. Co. T-7009

α-chymotrypsin = target: T4, α-chymotrypsin (Bos taurus, UniProt P00766); test: Inhibition of α-chymotrypsin; assay type: biochemical; conditions: Table II; 10 uM; read-out: Chymotrypsin % I @ 10 uM
T4 construct: purchased Sigma Chem. Co. C-3142
Summary of the method: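 Enzyme added to inhibitor first, then reaction started with substrate; no calcium activation needed as enzyme is constitutively active. Fluorogenic substrate hydrolysis read every 5 min up to 30 min ([…]).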

[2] = target: T1, Recombinant human calpain I; test: Inhibition of calpain I activity; assay type: biochemical; conditions: Table II
cathepsin B = target: T5, cathepsin B (Homo sapiens, UniProt P07858); test: Inhibition of cathepsin B; assay type: biochemical; conditions: Table II; read-out: Cat B IC50
T5 construct: purchased Calbiochem 219364
Procedure: as §1

spectrin breakdown = test: Spectrin breakdown in gerbil global ischemia model (CA1 hippocampal sector, Western blotting); assay type: in vivo; conditions: FIG. 1
Procedure: Gerbils were anesthetized using 4% isolflurane volatilized using a gas mixture consisting of 30% O2 and 70% N2. After the induction of anesthesia, a preferred compound of the invention, compound 40 (Example 34), was administered either immediately before the induction of ischemia and 24 hours after the initiation of reperfusion (FIG. 2), or three hours after the initiation of reperfusion and 24 hours after the initiation of reperfusion (FIG. 3). To induce ischemia, the common carotid arteries were exposed and occluded bilaterally for 7 minutes. Gerbil core temperature was carefully regulated at 38° C. by a thermostatically controlled heat lamp. Reperfusion was initiated by the release of the arterial occlusion, whereupon anesthesia was terminated so that the gerbils began to breath room air. The neck incision was closed, and the gerbils were returned to the incubator for one hour to maintain their core temperature. At 1 hour of reperfusion, anesthesia was induced by inhalation of CO2 and the gerbils were sacrificed. The CA1 hippocampal sector was dissected using a hole punch (0.3 mm), and spectrin breakdown products (BDP) were determined by Western Blotting. Spectrin breakdown was quantified by image analysis, and percent inhibition was calculated by integrated optical density. […]

hippocampal CA1 neurons = test: Survival of hippocampal CA1 neurons in gerbil global ischemia model; assay type: in vivo
Procedure: Gerbils were anesthetized using 4% isolflurane volatilized using a gas mixture consisting of 30% O2 and 70% N2. […] To induce ischemia, the common carotid arteries were exposed and occluded bilaterally for 7 minutes. Gerbil core temperature was carefully regulated at 38° C. by a thermostatically controlled heat lamp. Reperfusion was initiated by the release of the arterial occlusion, whereupon anesthesia was terminated so that the gerbils began to breath room air. The neck incision was closed, and the gerbils were returned to the incubator for one hour to maintain their core temperature. At 1 hour of reperfusion, anesthesia was induced by inhalation of CO2 and the gerbils were sacrificed.
To quantify histopathological damage, the gerbils were returned to their home cages after one hour reperfusion in the incubator and then sacrificed, as described above, four days later. The brains were rapidly removed, frozen on dry ice, and then sectioned using a cryostat. Twenty micron sections were stained with thionin, and surviving neurons in the hippocampal CA1 sector were counted using computer assisted image analysis.

T2 sequence (P07711 114-288 limits assumed): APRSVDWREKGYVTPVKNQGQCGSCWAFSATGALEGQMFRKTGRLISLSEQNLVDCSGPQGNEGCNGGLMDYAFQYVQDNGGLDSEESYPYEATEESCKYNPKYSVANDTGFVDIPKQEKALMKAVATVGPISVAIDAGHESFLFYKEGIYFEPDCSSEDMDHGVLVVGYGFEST
T2 sequence (P07711 292-333 limits assumed): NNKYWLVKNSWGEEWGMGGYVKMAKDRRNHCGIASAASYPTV

Molecule `CS(=O)(=O)N[C@H](CC(=O)N1CCc2ccccc2C1)C(=O)NC(Cc1ccccc1)C(=O)CF` (stereo partly drawn) [Compound 20, THIQ-2-C(=O)CH2 CH(NHS(=O)2 CH3)C(=O)-Phe--CH2 F] has a kinact/KI [1] of 2800 M⁻¹ s⁻¹, a pIC50 (cathepsin L) of 5.74 and an inhibition at 10 µM (thrombin) of 0%. It also gave an inhibition at 10 µM (α-chymotrypsin) of 7%.
Molecule `CS(=O)(=O)N[C@H](CSCc1ccccc1)C(=O)NC(Cc1ccccc1)C(=O)CF` (stereo partly drawn) [Compound 33, BnS--CH2 CH(NHS(=O)2 CH3)C(=O)-Phe--CH2] (Ms-[dC](Bn)-[ξF]-CH2F) has a kinact/KI [1] of 26600 M⁻¹ s⁻¹, an inhibition at 10 µM (thrombin) of 0% and an inhibition at 10 µM (α-chymotrypsin) of 14%.
In the case of `CS(=O)(=O)N[C@H](COCc1ccccc1)C(=O)NC(Cc1ccccc1)C(=O)CF` (stereo partly drawn) [Compound 34, BnO--CH2 CH(NHS(=O)2 CH3)C(=O)-Phe--CH2], the kinact/KI [1] was 21000 M⁻¹ s⁻¹, the pIC50 (cathepsin L) was 5.74 and the inhibition at 10 µM (thrombin) was 0%. The inhibition at 10 µM (α-chymotrypsin) was 14%.
Work on `CS(=O)(=O)N[C@H](COCc1ccccc1)C(=O)N[C@H](C=O)Cc1ccccc1` [Compound 40, BnO--CH2 CH(NHS(=O)2 CH3)C(=O)-Phe--H] yielded a pIC50 [2] of 7.96, a pIC50 (cathepsin B) of 7.38 and a pIC50 (cathepsin L) of 8.05. For the same molecule, the inhibition at 10 µM (thrombin) was 0%, the inhibition at 10 µM (α-chymotrypsin) was 23% and the “reduction of spectrin breakdown” value (spectrin breakdown) was “approximately 50%”. The “suppression of spectrin breakdown in CA1 hippocampal sectors” value (spectrin breakdown; vs vehicle-treated control gerbils, p<0.0001) was “statistically significant suppression of spectrin breakdown”, the “number of surviving hippocampal CA1 neurons relative to controls” value (hippocampal CA1 neurons; dosed immediately before ischemia and 24 hours after initiation of reperfusion, FIG. 2) was “more than doubled the number of surviving hippocampal CA1 neurons” and the “neuroprotection at four days after the ischemic insult” value (hippocampal CA1 neurons; dosed immediately before ischemia and 24 hours after initiation of reperfusion, p<0.01, FIG. 2) was “neuroprotective at four days after the ischemic insult”. For the same molecule, the neuroprotective effect (hippocampal CA1 neurons; dosed three hours and 24 hours after initiation of reperfusion, p<0.02, FIG. 3) was “neuroprotective effect”.
